# Experimental data published in US20240382463A1, “Composition Comprising HDAC Inhibitor and Immune Checkpoin Inhibitor and Methods For Using the Same” (Avstera Therapeutics Corp., priority 2023, published 2024).
# Read-outs that look alike come from different tables or passages of the source.
# Key:
# HDAC6 = biological target: T1, HDAC6 (Homo sapiens, UniProt Q9UBN7); conditions: cited from earlier work
# T1 sequence (Q9UBN7 1-1215): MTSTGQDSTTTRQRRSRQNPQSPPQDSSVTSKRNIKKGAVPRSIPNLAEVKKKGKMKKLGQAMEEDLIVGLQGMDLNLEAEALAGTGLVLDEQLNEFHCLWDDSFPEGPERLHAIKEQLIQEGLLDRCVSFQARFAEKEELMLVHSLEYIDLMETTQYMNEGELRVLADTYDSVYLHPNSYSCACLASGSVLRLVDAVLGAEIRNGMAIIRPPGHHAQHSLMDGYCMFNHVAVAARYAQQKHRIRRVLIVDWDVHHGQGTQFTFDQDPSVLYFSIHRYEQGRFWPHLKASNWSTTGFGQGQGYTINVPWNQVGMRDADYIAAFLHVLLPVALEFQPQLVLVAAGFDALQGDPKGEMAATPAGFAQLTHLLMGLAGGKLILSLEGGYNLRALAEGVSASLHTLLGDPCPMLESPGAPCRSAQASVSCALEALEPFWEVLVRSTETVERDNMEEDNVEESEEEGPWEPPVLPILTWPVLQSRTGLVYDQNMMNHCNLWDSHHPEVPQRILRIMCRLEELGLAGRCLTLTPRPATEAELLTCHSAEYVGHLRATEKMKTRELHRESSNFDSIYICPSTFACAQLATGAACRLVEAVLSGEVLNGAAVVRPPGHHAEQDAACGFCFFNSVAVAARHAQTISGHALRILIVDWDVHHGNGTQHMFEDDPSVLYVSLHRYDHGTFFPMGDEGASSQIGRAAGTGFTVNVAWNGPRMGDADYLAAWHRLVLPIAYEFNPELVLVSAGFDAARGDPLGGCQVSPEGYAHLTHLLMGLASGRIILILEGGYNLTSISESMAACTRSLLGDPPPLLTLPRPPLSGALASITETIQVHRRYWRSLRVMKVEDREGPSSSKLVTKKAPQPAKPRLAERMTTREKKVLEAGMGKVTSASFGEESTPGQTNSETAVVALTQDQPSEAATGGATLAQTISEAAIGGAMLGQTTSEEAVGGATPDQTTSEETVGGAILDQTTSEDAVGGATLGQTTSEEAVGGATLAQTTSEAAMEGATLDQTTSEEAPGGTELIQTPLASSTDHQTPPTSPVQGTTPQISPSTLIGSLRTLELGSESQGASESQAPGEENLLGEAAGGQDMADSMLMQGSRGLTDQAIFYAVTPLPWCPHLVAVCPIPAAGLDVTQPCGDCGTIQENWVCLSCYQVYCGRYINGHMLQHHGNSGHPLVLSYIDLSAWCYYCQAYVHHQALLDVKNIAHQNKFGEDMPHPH
# [1] = system: S. typhimurium (TA98 and TA1537); assay: Ames assay (mutagenicity); format: cell-based; conditions: for increase in the number of colonies: with and without S9 mix
# Hepatocyte stability = format: in vitro ADME; conditions: human, hepatocytes; read-out: Hepatocytes stability (t½)
# [2] = system: primary human macrophages; assay: Polarization of primary human macrophages (qPCR, RNAseq); format: cell-based
# Protocol: (§2) For qPCR, RNA was isolated by Trizol purification followed by reverse transcription using iScript™ cDNA Synthesis Kit and qPCR using iQ™ SYBR® Green Supermix (Biorad). qPCR were run on real time PCR, CFX Opus 96 (Biorad).
# RNAseq libraries were prepared following the manufacturer's instructions. The feature-barcode matrices generated by the 10× Genomics CellRanger pipeline were analyzed with an SCTransform workflow (Seurat v4.3.0.1) in RStudio. Cells with greater than 10% mitochondrial counts, fewer than 100 genes detected, or with a number of counts greater than the 93rd percentile of counts were removed. Cell type recognition was performed using the reference-based scRNA-seq annotation package, SingleR. The Immunological Genome Project (ImmGen) was used as the reference dataset. The Seurat object was filtered to include the major immune cell populations present.
# As a readout of polarization, changes were analyzed in the expression levels of genes associated with the M1 and M2 phenotype in human macrophages.
# [3] = system: THP1 cells differentiated to macrophages; assay: THP1 macrophages, M2 polarization signalling, Western blot; format: cell-based, human
# Protocol: (§1) Immunoblot-blot, FACs, and gPCR: For western-blot analysis cell monolayers were washed in PBS and lyzed with complete RIPA buffer containing protease, phosphatases and the HDAC inhibitor Panabinostat (10 nM). Cells were sonicated for 12 cycles at high intensity and the cell lysates were centrifuged at 12,000 rpm for 10 minutes at 4° C. to remove the cell debris. Protein quantitation on the supernatants was performed using BCA assay. Protein samples were prepared at 1 ug/uL concentration with 6× Lamelli buffer and incubated for 5 minutes at 90° C. Precast gels containing 20 μg of protein/sample were run and the gels were transferred to a PVDF membrane and stained with specific antibodies. The antibodies used for western-blot are anti-α-tubulin (mouse DM1A, Cell Signaling Tech), anti-acetyl-α-tubulin (rabbit K40, Cell Signaling Tech), anti-iNOS (rabbit polyclonal, Invitrogen), anti-Arginasel (rabbit D4E3M, Cell Signaling Tech). Anti-c-Myc (rabbit D84C12, cell Signaling Tech), anti-acetylated-c-Myc (Rabbit polyclonal Acetyl-Lys148-c-Myc, Sigma-Aldrich), anti-Stat6 (Rabbit D3H4, Cell Signaling Tech), anti-Phospho-Stat6 (Polyclonal Rabbit, Cell Signaling Tech), anti-Stat3 (Rabbit 79D7, Cell Signaling Tech), anti-Phospho-Stat3-727 (Rabbit D8C2Z, Cell Signaling Tech), anti-phospho-Stat3-705 (Rabbit D3A7, Cell Signaling Tech). […]
# [4] = system: myeloid and lymphoid lymphoma cell lines; assay: c-Myc acetylation and levels in lymphoma cell lines, Western blot; format: cell-based, human
# Protocol: as §1
# SM1 melanoma tumors = assay: SM1 melanoma model, in vivo tumor growth; set-up: species or system C57BL/6 mice
# Protocol: In vivo tumor growth: Analysis of tumor growth using the murine SM1 melanoma model were performed in accordance with IACUC guidelines at Georgetown University. Murine melanoma tumors were established by implanting 0.75×10^6 SM1 cells in the right flank area of 6-8 weeks-old female C57BL/6 mice. […] Anti-PD1 or isotype control (BE0146-CUST and BE0089-CUST, Bio X cell) were injected i.p. (15 mg/kg) in 100 ul PBS every other day. Tumor growth was monitored using electronic calipers, the length and width of detected tumors were measured every other day and tumor volumes calculated using the formula ½*length*(width)^2. The body weights of animals were recorded once a week using a portable scale to monitor general health.
# CT26 colon cancer tumors = assay: CT26 colon cancer model, in vivo tumor growth; set-up: species or system Balb/c mice
# Protocol: For the CT26 colon cancer model animal studies were performed by Adgyl Lifesciences. Mice were implanted with 0.5×10^6 CT26 cells in the right flanks of 7-8 week-old female Balb/c mice. […] Tumor volume and body weight were monitored twice weekly. Tumor dissection and single-cell suspension: Tumor single-cell suspensions were obtained by mincing the tumor tissue with scalps in petri dishes with complete media, followed by incubation of the minced tumors in a digestion solution (collagenase I, collagenase IV, hyaluronidase V, and DNase I) at 37° C. with rotation for 30-45 min. The digested solution was passed by a cell strainer to remove undigested material, centrifuged, washed and resuspended in complete media.
# [5] = Plasma pharmacokinetics after oral gavage; format: in vivo, C57BL/6 mice; conditions: PEG6000 formulation compared to the CMC formulation
# Protocol: LS-MS: Plasma samples were obtained using EDTA as anticoagulant and run by Adgyl Life Sciences using a fit for purpose LC-MS/MS method. Briefly, plasma samples were run in a triple Quad 6500+LC-MS/MS System using a 50:50 (ACN:Water v/v) working solution diluent. A mobile Phase A: 2 mM Ammonium formate with 0.1% Formic acid, a mobile Phase B: Acetonitrile with 0.1% formic Acid Isocratic mode; Pump A:B: 50:50. Using a Phenomenex Phenyl-Hexyl column of Sum particle size. […] The calibration curve was generated using area ratio of analyte area: area of internal standard vs concentration and was regressed using linear regression equation and weighting of 1/x2.
# The plasma pharmacokinetic parameters of SS-208 were determined from concentration time curves obtained following a single IV and oral route of administration in male C57BL/6 mice. Values are expressed as mean and n=3 mice/time point/group.
# However, tumors are not completely eliminated. […] For oral gavage, CMC or PEG6000 formulations were used in fed or starved mice.
# [6] = system: murine bone marrow-derived macrophages (BMDM)
# Excerpt: as §2
# hERG = hERG (Homo sapiens, UniProt Q12809); assay: hERG test; conditions: up to 30 μM
# Chain of hERG (Q12809 whole entry): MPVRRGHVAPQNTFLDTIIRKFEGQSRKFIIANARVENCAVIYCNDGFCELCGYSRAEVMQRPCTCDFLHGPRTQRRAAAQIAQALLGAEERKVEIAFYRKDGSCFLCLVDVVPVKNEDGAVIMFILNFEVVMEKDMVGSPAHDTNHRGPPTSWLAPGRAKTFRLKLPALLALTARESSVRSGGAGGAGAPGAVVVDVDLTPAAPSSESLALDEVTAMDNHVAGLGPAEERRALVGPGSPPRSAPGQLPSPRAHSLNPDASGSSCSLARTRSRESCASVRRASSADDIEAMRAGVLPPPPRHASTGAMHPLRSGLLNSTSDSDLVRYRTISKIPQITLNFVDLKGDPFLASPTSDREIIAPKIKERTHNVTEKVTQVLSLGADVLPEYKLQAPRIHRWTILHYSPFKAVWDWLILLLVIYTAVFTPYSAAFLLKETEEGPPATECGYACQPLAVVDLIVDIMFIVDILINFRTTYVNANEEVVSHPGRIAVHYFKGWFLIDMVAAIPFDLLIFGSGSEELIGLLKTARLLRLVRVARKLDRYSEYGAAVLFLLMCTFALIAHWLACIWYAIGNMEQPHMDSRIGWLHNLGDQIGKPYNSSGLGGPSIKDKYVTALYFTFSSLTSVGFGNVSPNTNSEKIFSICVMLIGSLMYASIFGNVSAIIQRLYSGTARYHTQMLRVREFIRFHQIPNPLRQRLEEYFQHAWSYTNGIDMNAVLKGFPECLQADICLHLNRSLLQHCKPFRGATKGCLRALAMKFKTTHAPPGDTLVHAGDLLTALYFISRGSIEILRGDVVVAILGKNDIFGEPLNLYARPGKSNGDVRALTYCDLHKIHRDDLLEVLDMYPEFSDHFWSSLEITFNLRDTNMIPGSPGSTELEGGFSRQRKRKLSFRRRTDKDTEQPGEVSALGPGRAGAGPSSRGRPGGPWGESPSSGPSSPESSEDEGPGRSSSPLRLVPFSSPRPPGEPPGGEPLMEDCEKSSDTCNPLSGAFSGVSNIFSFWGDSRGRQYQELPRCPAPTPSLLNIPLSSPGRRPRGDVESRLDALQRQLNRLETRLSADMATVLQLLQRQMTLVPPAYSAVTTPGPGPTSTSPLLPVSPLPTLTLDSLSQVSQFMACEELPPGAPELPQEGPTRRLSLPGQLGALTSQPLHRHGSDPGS
# [7] = GLP safety and toxicology studies; conditions: rats and dogs
# [8] = system: BMA31A7 murine macrophages; assay: M2 polarization of BMA31A7 macrophages, Western blot
# Excerpt: (§3) Two different cell lines were used as they are better models for polarization towards M1 and M2, respectively.
# [9] = Safety pharmacology (CNS, pulmonary, cardiovascular); conditions: in vivo
# [10] = system: Raw264.7 murine macrophages; assay: M1 polarization of Raw264.7 macrophages, Western blot
# Excerpt: as §3
# melanoma tumor models = conditions: potentiates anti-PD1 therapy; tumors are not completely eliminated; cited from earlier work
# [11] = system: S. typhimurium (TA98 and TA1537); conditions: cited from earlier work
compound,measurement,setting,value
O=C(CCCCCCNC(=O)c1cnc(N(c2ccccc2)c2ccccc2)nc1)NO [ACY-1215],specificity over HDAC6 than other HDAC isoforms,HDAC6,ten-fold
"O=C(NCCc1cc(C(=O)NO)no1)c1ccc(Cl)c(Cl)c1 [AVS100, 5-(2-(3,4-dichlorobenzamido)ethyl)-N-hydroxyisoxazole-3-carboxamide]",AMES test (in words),[1],AMES-negative
same,Ames test (with and without S9),"[1]; TA98, TA1537",negative
same,increase in the number of colonies,"[1]; tester strain TA98, any dose",< 2 fold
same,increase in the number of colonies,"[1]; tester strain TA1537, any dose",< 3 fold
same,half-life,Hepatocyte stability,2.25 h
same,genes of the RelA/NFKB transcriptional program inhibited in M1 cells,"[2]; RNAseq, Trust pathway analysis",45 genes
same,"Cox2, Ccl5, and Socs1 induction","[2]; qPCR, M1 (IFN-γ plus LPS)",partially inhibited
same,"M1 markers Cd64, Tnf and Ido induction","[2]; qPCR, M1 (IFN-γ plus LPS)",did not affect
same,"induction of the M2 markers Cd209, Cd200r1, Mrc1, Tgm2, and Il10","[2]; qPCR, M2 (IL-4)",prevented
same,STAT6 phosphorylation in response to IL-4,[3],not inhibited
same,c-Myc levels in M0 and M2 polarized macrophages,[3],reduced
same,acetyl-c-Myc,[4],increased
same,total c-Myc levels,[4],reduced
same,tumor growth,"SM1 melanoma tumors; 100 mg/kg, daily oral gavage, standalone",significantly reduced
same,"tumor growth, standalone therapies","SM1 melanoma tumors; AVS100 daily oral gavage, anti-PD1 i.p.",similarly reduced
same,intratumoral CD4 T-cells,SM1 melanoma tumors; flow cytometry,reduction
same,intratumoral CD8 T-cells,SM1 melanoma tumors; flow cytometry,increase
same,"Cluster 0, IFN-TAMs",SM1 melanoma tumors; scRNAseq of CD45+ cells,increased
same,central memory CD8 T-cells (CD62L+CD44+),SM1 melanoma tumors; standalone treatment,specific increase
same,tumor growth,"CT26 colon cancer tumors; AVS100 100 mg/kg daily gavage, anti-PD1 10 mg/kg i.p. every 4 days",significant tumor growth inhibition
same,responders with tumor volume lower than 300 mm^3,CT26 colon cancer tumors; CT26 colon cancer,20%
same,M1-like TAMs,CT26 colon cancer tumors; treatment alone,significant increase
same,M2-like TAMs,CT26 colon cancer tumors; treatment alone,significant reduction
same,area under the curve (AUC) levels,[5],higher
same,bioavailability,[5],higher
same,maximum concentrations in blood (Cmax),[5],higher
same,Arg1 levels in M2 polarizing conditions,[6]; Western blot,reduced
same,iNOS levels under M1 polarizing conditions,[6]; Western blot,partial reduction
same,Il1b levels in M1 cells,[6]; qPCR,increased
same,"M2 markers Arg1, Fizz1, and Tgfb in M2 cells",[6]; qPCR,inhibition
same,Nos2 levels,[6]; qPCR,did not affect
same,inhibition in the hERG assay,hERG,no significant inhibition
same,mutagenicity or toxicity in GLP studies,[7],"no mutagenicity, toxicity, or adverse effects"
same,acetyl-α-tubulin levels,"[8]; BMA31A7, AVS100 10 uM",increased
same,Arg1 upregulation under M2 polarizing conditions,"[8]; IL-4 plus IL-13, AVS100 10 uM",blocked
same,"alterations of CNS behavior, pulmonary or cardiovascular function",[9],no alterations
same,increase of iNOS levels under M1 polarizing conditions,"[10]; LPS plus IFNγ, AVS100 10 uM",did not affect
same,acetyl-α-tubulin levels,"[10]; Raw264.7, AVS100 10 uM",increased
CCCCN(Cc1ccc(C(=O)NO)cc1)C(=O)Nc1ccccc1 [Nexturastat-A],antitumoral effect in melanoma tumor models,melanoma tumor models,antitumoral effect
O=C(NO)c1ccc(CN2CCCc3cc(Cl)ccc32)cc1 [SW100],AMES test (in words),[11],AMES-negative
